Measurements taken from US12577255B2, “MDM2-based modulators of proteolysis and associated methods of use” (Arvinas Operations, Inc., priority 2015, dated 2026).
One block for each compound: values may come before it.

Assays:
[1] = target: enhancer of zeste homolog 2 (EZH2) (Homo sapiens, UniProt Q15910); assay: EZH2 Western blot assay (degradation); format: cell-based; conditions: at 1 μM; 16 h
Description: (§1) The following biological assays were performed to evaluate the protein degradation in various cell types using representative compounds disclosed. The degradation of the following proteins were evaluated: bromodomain-containing protein 4 (BRD4), androgen receptor (AR), c-Myc, c-Jun N-terminal kinases (JNK), and enhancer of zeste homolog 2 (EZH2).
(§2) Cells were purchased from ATCC and cultured in Dulbecco's Modified Eagle's Medium (ATCC), supplemented with 10% FBS (ATCC) and Penicillin/Streptomycin (Life Technologies). […] Cells were harvested, and lysed in RIPA buffer (50 mM Tris pH8, 150 mM NaCl, 1% Tx-100, 0.1% SDS, 0.5% sodium deoxycholate) supplemented with protease and phosphatase inhibitors. Lysates were clarified at 16,000 g for 10 minutes, and protein concentration was determined. Equal amount of protein (20 μg) was subjected to SDS-PAGE analysis and followed by immunoblotting according to standard protocols.

[2] = target: T1, bromodomain-containing protein 4 (BRD4) (Homo sapiens, UniProt O60885); assay: BRD4 Western blot (degradation); format: cell-based; conditions: at 1 μM; VCaP cells, 16 h
T1 construct: VCaP cells were chased from ATCC and cultured in Dulbecco's Modified Eagle's Medium; host or cells: VCaP

[3] = test system: p53^WT HCT-116 colon cancer cell lines; assay: Cell growth assay; format: cell-based, human; conditions: p53^WT HCT-116 (FIG. 4)
MDM2 = target: T2, MDM2 (Homo sapiens, UniProt Q00987); assay: Western blot of HCT116 cells, MDM2 level; format: cell-based; conditions: Western blot (FIG. 2, FIG. 3)
T2 construct: Western blot of HCT116 cells treated with chimeric molecules; endogenous in cells; host or cells: HCT116
T2 sequence (Q00987 whole entry): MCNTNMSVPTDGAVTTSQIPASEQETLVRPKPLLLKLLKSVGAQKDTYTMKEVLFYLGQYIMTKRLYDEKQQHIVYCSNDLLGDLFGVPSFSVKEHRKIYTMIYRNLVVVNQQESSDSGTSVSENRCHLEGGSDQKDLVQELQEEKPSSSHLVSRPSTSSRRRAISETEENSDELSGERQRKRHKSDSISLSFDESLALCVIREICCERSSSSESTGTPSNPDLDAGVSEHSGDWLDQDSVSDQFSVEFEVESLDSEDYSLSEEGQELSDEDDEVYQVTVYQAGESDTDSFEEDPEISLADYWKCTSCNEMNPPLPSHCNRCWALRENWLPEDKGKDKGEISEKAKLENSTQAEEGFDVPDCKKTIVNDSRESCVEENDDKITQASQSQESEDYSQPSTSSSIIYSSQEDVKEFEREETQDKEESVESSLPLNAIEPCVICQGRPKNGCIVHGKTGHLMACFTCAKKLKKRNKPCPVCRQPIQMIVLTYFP

BRD4 = BRD4 (Homo sapiens, UniProt O60885); assay: Time course of BRD4 degradation in A549; format: cell-based; design: endogenous in cells; host or cells: A549; conditions: human lung cancer cell line A549 (FIG. 6)
p53 = assay: Western blot of HCT116 cells, p53 level; format: cell-based, human; conditions: Western blot (FIG. 2, FIG. 3)
[4] = test system: c-Jun N-terminal kinases (JNK); assay: JNK Western blot assay (degradation); format: cell-based; conditions: at 1 μM; 16 h
Description: as §1, §2

Chain of enhancer of zeste homolog 2 (EZH2) (Q15910 whole entry): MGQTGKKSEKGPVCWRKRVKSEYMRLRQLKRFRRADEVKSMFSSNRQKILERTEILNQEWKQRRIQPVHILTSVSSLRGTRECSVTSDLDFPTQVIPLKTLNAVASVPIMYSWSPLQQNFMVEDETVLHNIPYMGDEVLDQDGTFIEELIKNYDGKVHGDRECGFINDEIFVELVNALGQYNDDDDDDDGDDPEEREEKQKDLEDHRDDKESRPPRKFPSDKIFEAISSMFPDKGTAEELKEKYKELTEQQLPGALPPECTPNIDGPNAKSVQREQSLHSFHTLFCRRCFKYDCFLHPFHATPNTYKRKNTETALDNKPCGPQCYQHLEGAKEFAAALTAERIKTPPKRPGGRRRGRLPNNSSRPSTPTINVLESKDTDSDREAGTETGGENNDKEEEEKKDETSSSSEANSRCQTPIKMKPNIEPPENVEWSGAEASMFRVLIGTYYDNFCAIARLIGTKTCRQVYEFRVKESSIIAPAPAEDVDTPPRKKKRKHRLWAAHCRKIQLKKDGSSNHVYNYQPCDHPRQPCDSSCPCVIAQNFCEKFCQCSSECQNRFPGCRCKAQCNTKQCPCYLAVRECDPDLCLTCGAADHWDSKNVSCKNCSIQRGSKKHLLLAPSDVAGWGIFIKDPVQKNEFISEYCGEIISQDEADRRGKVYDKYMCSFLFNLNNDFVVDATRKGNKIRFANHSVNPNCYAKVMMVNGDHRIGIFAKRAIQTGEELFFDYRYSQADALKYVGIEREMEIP
Chain of enhancer of zeste homolog 2 (EZH2) (O75530 whole entry partner): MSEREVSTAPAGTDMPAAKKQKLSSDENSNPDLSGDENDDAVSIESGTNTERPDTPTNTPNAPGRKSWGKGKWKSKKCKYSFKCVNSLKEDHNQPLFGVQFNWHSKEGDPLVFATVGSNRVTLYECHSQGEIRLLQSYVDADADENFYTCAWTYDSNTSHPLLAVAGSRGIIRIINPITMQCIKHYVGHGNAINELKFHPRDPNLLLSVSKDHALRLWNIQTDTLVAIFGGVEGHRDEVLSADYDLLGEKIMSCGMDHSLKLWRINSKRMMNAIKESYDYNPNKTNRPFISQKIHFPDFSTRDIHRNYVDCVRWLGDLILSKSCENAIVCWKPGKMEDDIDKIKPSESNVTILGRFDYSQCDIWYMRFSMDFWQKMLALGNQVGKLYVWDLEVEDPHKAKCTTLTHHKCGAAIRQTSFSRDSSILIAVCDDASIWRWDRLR
Chain of enhancer of zeste homolog 2 (EZH2) (Q15022 whole entry partner): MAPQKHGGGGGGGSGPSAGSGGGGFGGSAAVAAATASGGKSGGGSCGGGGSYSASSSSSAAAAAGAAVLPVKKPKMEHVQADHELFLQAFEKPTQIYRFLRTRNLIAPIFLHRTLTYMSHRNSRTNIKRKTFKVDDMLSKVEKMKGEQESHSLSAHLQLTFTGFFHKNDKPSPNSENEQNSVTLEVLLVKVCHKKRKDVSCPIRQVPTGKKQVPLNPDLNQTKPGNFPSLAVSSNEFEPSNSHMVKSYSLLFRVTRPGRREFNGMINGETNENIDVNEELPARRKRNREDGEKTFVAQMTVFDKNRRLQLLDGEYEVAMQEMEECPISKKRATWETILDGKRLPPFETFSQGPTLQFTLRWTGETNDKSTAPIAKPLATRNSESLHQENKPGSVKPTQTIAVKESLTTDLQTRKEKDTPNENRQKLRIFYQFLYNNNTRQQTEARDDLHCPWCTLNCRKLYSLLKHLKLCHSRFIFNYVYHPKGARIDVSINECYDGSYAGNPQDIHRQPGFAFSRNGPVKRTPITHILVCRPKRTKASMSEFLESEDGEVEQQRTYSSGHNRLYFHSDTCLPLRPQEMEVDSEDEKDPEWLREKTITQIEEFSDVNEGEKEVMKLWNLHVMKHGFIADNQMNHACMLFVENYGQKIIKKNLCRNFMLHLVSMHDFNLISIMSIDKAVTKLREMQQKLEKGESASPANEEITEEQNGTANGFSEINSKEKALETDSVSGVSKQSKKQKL

- Degradation activity EZH2 [1]: A (0 to 25% degradation at 1 μM)
Compound: CCN(c1cc(-c2ccc(OCCOCCOCCOCCNC(=O)c3ccc(NC(=O)C4NC(CC(C)(C)C)C(C#N)(c5ccc(Cl)cc5F)C4c4cccc(Cl)c4F)c(OC)c3)cc2)cc(C(=O)NCc2c(C)cc(C)[nH]c2=O)c1C)C1CCOCC1 (centres unmarked) [Compound A2790, 3-(3-chloro-2-fluorophenyl)-4-(4-chloro-2-fluorophenyl)-4-cyano-N-[4-({1-[4-(3-{[(4,6-dimethyl-2-oxo-1,2-dihydropyridin-3-yl)methyl]carbamoyl}-5-[ethyl(oxan-4-yl)amino]-4-methylphenyl)phenyl]-1,4,7,10-tetraoxadodecan-12-yl}carbamoyl)-2-methoxyphenyl]-5-(2,2-dimethylpropyl)pyrrolidine-2-carboxamide]

- Degradation activity BRD4 [2]: C (larger than 50% degradation at 1 μM)
- MDM2 up-regulation (MDM2): up-regulation of MDM2
- BRD4 degradation, time course (BRD4): BRD4 degradation
Compound: COc1cc(C(=O)NCCOCCOCCOCCOCCNC(=O)C[C@@H]2N=C(c3ccc(Cl)cc3)c3c(sc(C)c3C)-n3c(C)nnc32)ccc1NC(=O)[C@@H]1N[C@@H](CC(C)(C)C)[C@](C#N)(c2ccc(Cl)cc2F)[C@H]1c1cccc(Cl)c1F [Compound A1893, (2R,3S,4R,5S)-3-(3-chloro-2-fluorophenyl)-4-(4-chloro-2-fluorophenyl)-N-{4-[(14-{2-[(9S)-7-(4-chlorophenyl)-4,5,13-trimethyl-3-thia-1,8,11,12-tetraazatricyclo[8.3.0.0^2,^6]-trideca-2(6),4,7,10,12-pentaen-9-yl]acetamido}-3,6,9,12-tetraoxatetradecan-1-yl)carbamoyl]-2-methoxyphenyl}-4-cyano-5-(2,2-dimethylpropyl)pyrrolidine-2-carboxamide]
- growth inhibition [3]: very potent growth inhibition
- p53 level increase (p53): dose dependent p53 level increase

- Degradation activity EZH2 [1]: A (0 to 25% degradation at 1 μM)
Compound: CCN(c1cc(-c2ccc(OCCOCCOCCOCCOCCOCCNC(=O)c3ccc(NC(=O)C4NC(CC(C)(C)C)C(C#N)(c5ccc(Cl)cc5F)C4c4cccc(Cl)c4F)c(OC)c3)cc2)cc(C(=O)NCc2c(C)cc(C)[nH]c2=O)c1C)C1CCOCC1 (centres unmarked) [Compound A2844, 3-(3-chloro-2-fluorophenyl)-4-(4-chloro-2-fluorophenyl)-4-cyano-N-[4-({1-[4-(3-{[(4,6-dimethyl-2-oxo-1,2-dihydropyridin-3-yl)methyl]carbamoyl}-5-[ethyl(oxan-4-yl)amino]-4-methylphenyl)phenyl]-1,4,7,10,13,16-hexaoxaoctadecan-18-yl}carbamoyl)-2-methoxyphenyl]-5-(2,2-dimethylpropyl)pyrrolidine-2-carboxamide]

Compound: COc1cc(C(=O)NCCOCCOCCOCCO[C@H]2CC[C@H](Nc3nccc(-c4cnn(Cc5ccccc5)c4N(C)C)n3)CC2)ccc1NC(=O)C1N[C@@H](CC(C)(C)C)[C@](C#N)(c2ccc(Cl)cc2F)[C@H]1c1cccc(Cl)c1F (stereo partly drawn) [Compound A2791, 3-(3-chloro-2-fluorophenyl)-4-(4-chloro-2-fluorophenyl)-4-cyano-5-(2,2-dimethylpropyl)-N-[2-methoxy-4-({1-[(1,4-trans)-4-({4-[1-benzyl-5-(dimethylamino)-1H-pyrazol-4-yl]pyrimidin-2-yl}amino)cyclohexyl]-1,4,7,10-tetraoxadodecan-12-yl}carbamoyl)phenyl]pyrrolidine-2-carboxamide]
- Degradation activity JNK [4]: A (0 to 25% degradation at 1 μM)
